Test results taken from patent US11464770B2, “Anticancer pharmaceutical composition” (NATIONAL CANCER CENTER, priority 2016, dated 2022).

System: zebrafish
Assay: Cardiotoxicity experiment using zebrafish (heart rate, lethality)
Assay type: in vivo
Details: 10 uM, n = 10

SMILES: COc1ccc(CCN2CCC(Nc3nc4ccccc4n3Cc3ccc(F)cc3)CC2)cc1 [Astemizole, reference compound]
- Changes (%) in heart rate (mean): 46.2%
- Lethality: 0/10
